Reference: patent publication US6649797B2, “Compounds and methods of use to treat infectious diseases” (The Picower Institute for Medical Research, priority 1996, dated 2003)

Assays:
[1] = molecular target: T1, pseudovirion-derived nucleoprotein complexes / karyopherin α (Human immunodeficiency virus type 1 group M subtype B, UniProt P04591); test: Binding of pseudovirion-derived nucleoprotein complexes to GST-karyopherin α; assay type: biochemical, HIV-1; conditions: various concentrations
T1 construct: composed exclusively of Gag (MA, CA, NC, p6) and Env (gp41 and gp120) proteins; endogenous in cells; host or cells: cytoplasmic lysate of H9 cells inoculated with HIV-like gag-env pseudovirions (Haffar et al. 1990)
Method: Cytoplasmic lysates of H9 cells infected with HIV-1RF (upper panel) or HIV-like pseudovirions (bottom panel) were treated for 2 hours with various concentrations of CNI-H0294, and were then mixed with GST-karyopherin α immobilized on glutathione Sepharose beads. HIV-1 DNA or RNA that co-precipitated with karyopherin α was quantified as in A and B.
H9 cells were infected with HIV-1 or HIV-like pseudovirions (Haffar, et al., 1990, J. Virol., 64:2653-2659) at a multiplicity adjusted according to p24 content (50 ng p24 per 10^6 cells) The MA NLS^− virus contains substitutions of isoleucine residues for lysines in positions 26 and 27 of MA in an NLHX backbone (Westervelt., et al., 1992, J. Virol. 66:2577-2582), thus inactivating the NLS. The Vpr^− virus has the initiating ATG of the vpr gene changed to GTG, thus abolishing expression of this gene. The ΔMA NLS pseudovirions have leucine substituting for lysine in position 28 of MA. This mutation abrogates nuclear translocation of HIV-1 gag RNA in growth-arrested H9 cells infected with pseudovirions. […]
Cytoplasmic extracts prepared from HIV-1-or pseudovirion-infected H9 cells were adjusted to 0.14 M NaCl, 0.1% Tween 20 and precleared with glutathione-Sepharose beads for 30 min. at room temperature. Karyopherin α was expressed as a fusion protein with glutathione S-transferase (GST) which can bind glutathione beads in solution. […]

[2] = Toxicity in mice, median lethal dose by intraperitoneal injection; assay type: in vivo, mouse
Method: The doses of compounds of the invention found to be lethal to 50% of the mice (LD50) were determined by intraperitoneal injection of groups of five animals with increasing doses of each compound. CNI-0294 was administered from 0, 2, 10, 20, 40, 80, 160, 320, 640, 1280 mg/kg in 0.5 ml of water/HCl; CNI-1594 at 0, 2.4, 5, 10, 20, 40, 80 mg/kg in 0.5 ml of water/HCl; CNI-1794 at 0, 20, 50, 80 mg/kg in 0.5 ml of water/HCl; and CNI-1894 at 0, 10, 20, 40, 80, 240, 480, 960 mg/kg in water/HCl. […] The percentage of animals in each group which died were utilized to calculate the LD50 by non-linear curve fitting with the Enzfit software (Elsevier Bioscience; Cambridge, UK) programmed with the Chou equation (Chou 1976, J Theor Biol 39:253-276)).

[3] = molecular target: T2, recombinant RT (p51/p66 heterodimer) (Human immunodeficiency virus type 1 group M subtype B, UniProt P04585); test: Binding of [14C]-CNI-H0294 to recombinant RT in solution (immunoprecipitation); parameters: species or system HIV-1; conditions: 20 nmol [14C]-CNI-H0294 with 0.28 nmol RT
T2 construct: recombinant MA or RT (a p51/p66 heterodimer)
Method: Twenty nmol of [^14C]-CNI-HO294 were mixed with 0.28 nmol of recombinant MA or RT (a p51/p66 heterodimer) in 40 μl of binding buffer. Samples were incubated for 2 h at 37° C. in the presence or absence of 200 nmol of unlabeled CNI-H0294. MA and RT proteins were immunoprecipitated using protein G agarose and sheep polyclonal anti-MA (αMA) or rabbit anti-RT (αRT) sera, respectively. Pre-immune sera (PI) was used as control. Bound material was eluted from protein G using 0.1 M glycine buffer [pH 2.8] and the radioactivity in the eluate was quantified in a scintillation counter.
Recombinant RT (0.2 μM) was incubated with 3.3 μM of [^14C ]-labeled CNI-H0294 and increasing concentrations of unlabeled (cold) CNI-3094. The amount of [^14C]-CNI-H0294 that bound to RT was measured as in FIG. 11.
0.28 nanomoles of recombinant MA or RT [p66/p51 ] dimer were mixed with 20 nmol of [^14C] CNI-HO294 (specific activity 5×10^4 cpm/nmol) and incubated 2 hr at room temperature in 40 μl of binding buffer (PBS supplemented with 1% BSA, 0.1% Tween 20, 1 μg/ml leupeptin, 1 μg/ml aprotinin, 1 mM PMSF). Sheep anti-MA or rabbit anti-RT sera (both obtained from NIH AIDS Research and Reference Reagent Program) or pre-immune control sera were then added (at 1:100 dilution) and incubation continued for another 1 hr at room temperature. Immune complexes were precipitated with protein G-agarose, washed, and then eluted with 0.1 M glycine, pH 2.8. Radioactivity of the eluate was measured in a scintillation counter.

[4] = system: monocyte and T lymphocyte cultures; test: Cytotoxicity in monocyte and T lymphocyte cultures in vitro; assay type: cell-based

CC(=O)c1cc(Nc2cc(C)[n+](C)c(N)n2)cc(C(C)=O)c1 [CNI-0294, 2-Amino-4-(3,5-diacetylphenyl)amino-1,6-dimethylpyrimidinium chloride]
inhibition of binding of karyopherin α to pseudovirion-derived nucleoprotein complexes [1]: did not inhibit | visible signs of toxicity [2]: no overt signs of toxicity detectable at doses approaching the LD50 | LD50 ± standard deviation ([2]; listed as CNI-H0294): 590 mg/kg | LD50 ([2]; mouse, in vivo, ip, read-out: LD50 ± standard deviation): 588 mg/kg | CNI-H0294 immunoprecipitable with RT [3]: ~0.34 nmol | radioactivity immunoprecipitable with RT ([3]; specific activity 50,000 cpm/nmol): about 17,000 cpm | 50% toxic dose [4]: > 1 mM
